Values quoted from earlier work in publication PMC5427923, “A novel CCR2 antagonist inhibits atherogenesis in apoE deficient mice by achieving high receptor occupancy” (Scientific Reports, 2017).

What was measured:
hCCR2b = conditions: hCCR2; ref Vilums et al. [24]; cited from earlier work
apoE−/− mice = system: apoE−/− mice; parameters: method as in Aiello et al. [11]; conditions: ref Aiello et al. [11], cited from earlier work
CCR2 = system: CCR2; parameters: method as in PMID 16210643; conditions: single oral dose of 50 mg/kg, mice; ref [35]; cited from earlier work

| Compound | RT (hCCR2b) [min] | size of early and advanced atherosclerotic lesions (apoE−/− mice; apoE−/− mice) | inflammatory monocyte levels (apoE−/− mice; up to 6 hours after oral infusion, lost at 9 hours) | CCR2 inhibition (CCR2) |
| --- | --- | --- | --- | --- |
| CO[C@@H]1COCC[C@@H]1N[C@@H]1CC[C@@](C(=O)N2CCc3ncc(C(F)(F)F)cc3C2)(C(C)C)C1 [MK-0812, reference compound] | 92 | – | – | – |
| CCO[C@H]1CN(C2CCC(O)(c3ccc4c(c3)OCO4)CC2)C[C@@H]1NC(=O)CNC(=O)c1cccc(C(F)(F)F)c1 (mixture of isomers) [INCB3344] | – | failed to decrease | significantly reduced | approximately 75% |
